Target: T1, γ-TuSC (Saccharomyces cerevisiae, UniProt P53378)
T1 construct: made in house; host or cells: HighFive insect cells
T1 sequence (P53378 1-473): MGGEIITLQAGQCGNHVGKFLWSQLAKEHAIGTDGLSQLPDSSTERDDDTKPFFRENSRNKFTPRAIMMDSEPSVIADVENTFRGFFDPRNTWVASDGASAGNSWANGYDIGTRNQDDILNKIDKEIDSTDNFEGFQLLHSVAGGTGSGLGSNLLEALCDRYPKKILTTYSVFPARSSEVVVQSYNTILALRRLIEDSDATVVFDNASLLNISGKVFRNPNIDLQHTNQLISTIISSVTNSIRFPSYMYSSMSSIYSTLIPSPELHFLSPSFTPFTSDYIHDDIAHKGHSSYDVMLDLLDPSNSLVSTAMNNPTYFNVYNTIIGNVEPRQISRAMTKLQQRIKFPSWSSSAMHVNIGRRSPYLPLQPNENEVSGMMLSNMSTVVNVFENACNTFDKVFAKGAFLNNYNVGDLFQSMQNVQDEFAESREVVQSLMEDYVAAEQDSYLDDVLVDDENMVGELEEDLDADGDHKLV
T1 sequence (P38863 1-823 partner): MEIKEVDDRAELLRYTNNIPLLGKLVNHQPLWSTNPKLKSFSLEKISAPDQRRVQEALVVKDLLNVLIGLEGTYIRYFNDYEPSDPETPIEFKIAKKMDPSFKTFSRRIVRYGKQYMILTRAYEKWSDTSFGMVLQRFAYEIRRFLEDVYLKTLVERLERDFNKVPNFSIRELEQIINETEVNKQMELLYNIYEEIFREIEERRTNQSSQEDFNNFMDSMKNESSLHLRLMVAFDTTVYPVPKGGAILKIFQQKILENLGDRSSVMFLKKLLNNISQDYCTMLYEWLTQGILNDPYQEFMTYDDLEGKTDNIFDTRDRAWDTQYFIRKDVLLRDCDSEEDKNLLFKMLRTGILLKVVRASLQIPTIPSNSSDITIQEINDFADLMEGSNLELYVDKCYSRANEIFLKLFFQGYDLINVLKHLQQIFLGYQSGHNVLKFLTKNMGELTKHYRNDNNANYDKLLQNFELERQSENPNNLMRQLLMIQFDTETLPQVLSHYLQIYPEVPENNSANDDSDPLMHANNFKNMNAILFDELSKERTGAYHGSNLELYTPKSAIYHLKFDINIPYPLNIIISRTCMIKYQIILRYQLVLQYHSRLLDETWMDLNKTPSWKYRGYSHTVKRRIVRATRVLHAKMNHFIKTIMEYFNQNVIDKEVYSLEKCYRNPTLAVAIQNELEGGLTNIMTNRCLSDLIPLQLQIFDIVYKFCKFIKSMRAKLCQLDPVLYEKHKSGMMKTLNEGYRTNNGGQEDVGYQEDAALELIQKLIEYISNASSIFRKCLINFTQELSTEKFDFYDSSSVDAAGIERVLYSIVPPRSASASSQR
T1 sequence (P53540 1-846 partner): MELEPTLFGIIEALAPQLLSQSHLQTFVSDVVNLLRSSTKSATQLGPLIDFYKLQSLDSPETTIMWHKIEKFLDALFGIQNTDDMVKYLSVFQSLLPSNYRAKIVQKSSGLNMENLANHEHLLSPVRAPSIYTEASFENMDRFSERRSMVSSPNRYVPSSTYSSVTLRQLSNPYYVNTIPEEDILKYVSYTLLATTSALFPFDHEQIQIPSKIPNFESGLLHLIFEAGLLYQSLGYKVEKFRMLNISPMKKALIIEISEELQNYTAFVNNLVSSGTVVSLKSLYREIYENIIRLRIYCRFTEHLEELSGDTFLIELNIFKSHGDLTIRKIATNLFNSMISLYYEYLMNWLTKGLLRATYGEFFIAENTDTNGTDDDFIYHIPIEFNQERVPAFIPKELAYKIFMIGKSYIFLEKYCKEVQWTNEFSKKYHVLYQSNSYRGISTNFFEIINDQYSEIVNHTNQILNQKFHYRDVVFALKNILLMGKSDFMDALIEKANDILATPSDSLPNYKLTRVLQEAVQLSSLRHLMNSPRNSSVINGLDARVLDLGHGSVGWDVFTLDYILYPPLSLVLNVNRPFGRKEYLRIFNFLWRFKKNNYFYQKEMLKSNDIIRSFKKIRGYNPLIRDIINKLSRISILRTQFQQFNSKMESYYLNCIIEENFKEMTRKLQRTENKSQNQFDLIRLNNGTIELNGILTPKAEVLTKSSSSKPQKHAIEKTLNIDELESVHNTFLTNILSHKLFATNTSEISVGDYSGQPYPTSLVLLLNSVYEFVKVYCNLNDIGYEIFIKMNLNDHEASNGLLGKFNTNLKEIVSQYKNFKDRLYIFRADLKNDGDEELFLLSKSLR
Assay: γ-TuSC capping to paclitaxel-stabilized MTs
Type: biochemical
Conditions: 50 μM
Method: γ-TuSC was diluted in RB buffer containing 10 μM paclitaxel to reach a final protein concentration of 0.5 μM and incubated with 50 μM of gatastatin for 30 min at 25 °C. Polymerized MTs were prepared by incubation of ∼5 mg ml^−1 α/β-tubulin for 30 min at 37 °C with 1 mM GTP; then paclitaxel was added (final 10 μM). GTP was removed from paclitaxel-stabilized MTs with ultracentrifugation at 240,000g for 10 min at 25 °C. Paclitaxel-stabilized MTs were added to γ-TuSC (final ∼1.2 mg ml^−1). Next, γ-TuSC was incubated with paclitaxel-stabilized MTs for 30 min; MTs and MT-bound γ-TuSC were collected with ultracentrifugation at 240,000g for 10 min at 25 °C and finally placed on poly-L-lysine-coated coverslips. After incubation for 15 min, coverslips were immediately fixed with cold MeOH (−20 °C). Coverslips were blocked with PBS containing 0.5% bovine serum albumin and were incubated with anti-α-tubulin (1:200 dilution, MBL, Cat# PM054) and anti-penta His (1:200 dilution, Qiagen, Cat# 34660) antibodies. After staining with Alexa^488-conjugated anti-rabbit IgG (1:2000 dilution, Invitrogen) and Alexa^568-conjugated anti-mouse IgG (1:2000 dilution, Invitrogen), the coverslips were washed four times with PBS and mounted with PBS. γ-TuSC bound to MTs was observed under a LAS AF 6000 fluorescence microscope (Leica Microsystems, Wetzlar, Germany).

COc1cc2c(=O)c(-c3cc(OC)c4c(c3OC)OCO4)coc2cc1OCc1ccccc1 [Gatastatin, O^7-demethylbenzyl AG1]
Effect on γ-TuSC binding to MT ends: impaired γ-TuSC binding to MT ends

— paper PMC4640066 (Nature Communications, 2015)
